Test results from patent US20210085703A1, “Compositions and Methods for Preventing or Treating Nephrolithiasis” (SP Nutraceuticals, Inc., priority 2017, published 2021).
Like-named read-outs stand apart in the source and are kept apart here.

How the values were obtained:
[1] = tested on: calcium oxalate stone formation in D. melanogaster; experiment: Dose response relationship of arbutin and calcium oxalate stone formation (fecal excreta and dissected Malpighian tubules); assay type: in vivo, Drosophila melanogaster
Protocol: To quantify calcium oxalate calculi via D. melanogaster excreta birefringence assay, approximately 20 newly eclosed flies were added to each of 15 vials containing either of the lithogenic diets or standard food medium as a control. Stone forming diets were prepared according to the method discussed above. A glass coverslip (18×18 mm) was suspended from the cotton tube plug to allow for the collection of fecal matter. Following a 14-day incubation period, the coverslip was extracted from each tube and each coverslip was directly imaged by confocal microscopy under polarized light. Control experiments performed in a similar fashion with standard food media. The percent area of birefringence for each coverslip was individually analyzed and quantified using NIH ImageJ software (Particle Analysis function). In order to measure dose response relationship of arbutin and calcium oxalate stone formation, thirty milliliters of 0.5% (w/v) sodium oxalate media was prepared with […] arbutin. A 10-fold serial dilution was performed to obtain 15 ml of media per dilution. Each dilution was divided into 3 narrow fly vials to yield triplicates. Approximately 20 newly eclosed flies were added to each vial with a glass coverslip (18×18mm) suspended from the cotton via plug to collect fecal matter. After a 14-day incubation period, each coverslip was extracted and stone burden was quantified as described above to observe the dose-response relationship between arbutin concentration and percentage area of birefringence.

[2] = tested on: calcium oxalate stone burden in D. melanogaster fed patient urine; experiment: Patient derived urine based calcium oxalate stone induction in D. melanogaster; assay type: in vivo, Drosophila melanogaster
Protocol: In addition, effect of arbutin on patient derived urine based calcium oxalate stone induction in D. melanogaster was assessed. Urine samples were collected from recurrent calcium oxalate stone forming patients (n=10 patients) and centrifuged at 2500 rpm. One milliter aliquots of supernatant were prepared and stored at −80° C. for further analysis. Ten milliters of standard medium was prepared and thoroughly mixed with 1mL of patient urine, this was separated into two individual narrow vials (5 mL per vial). Approximately 20 newly eclosed flies were added to each vial. A glass coverslip (18×18 mm) was suspended from the cotton vial plug to collect fecal matter. […] Stone burden on each coverslip was quantified via the aforementioned birefringence assay and results were expressed as mean±standard error of mean (SEM). Percentage stone burden were analyzed using one way analysis of variance (ANOVA), (Prism 6, GraphPad Software, Inc., San Diego, Calif., USA) (FIG. 3e).
D. melanogaster incubated in this patient urine based model generated calculi in the same manner as with fly food supplemented with sodium oxalate. […] Various pH's were evaluated in order to recapitulate the pH in human urine at the kidney and bladder (pH 4-6) with a greater reduction in calculi formation observed at pH 7-8 (FIG. 3f, * denotes p<0.05, two-way ANOVA, Scheffe a correction).

[3] = rat; cited from earlier work
HEK293 cells [4] = experiment: Cell viability of HEK cells under oxalate conditions with arbutin; assay type: cell-based, human
Protocol: FIG. 6a) Confocal fluorescence images of HEK293 cells stained with CellTracker Red to label the cell surface and Hoechst to label the nuclei. HEK293 cells were treated with 20 μM sodium oxalate for 30 mins. Birefringence signal was observed within HEK293 cells (white signal). FIG. 6b) Activity of LDH released from HEK293 cells after 30 min incubation with oxalate in the presence or absence of arbutin. FIG. 6c) Cell viability in arbutin treated HEK293 and PC3MLN4 cells over a 3 day period. Green line represents control normalized to 100% at that same timepoint. *** denotes p<0.05, two way ANOVA; Scheffe a correction.
To assess the cytotoxity of sodium oxalate and arbutin, human embryonic kidney epithelial cells (HEK293; ATCC® CRL-1573™), were cultured in 6-well plate containing 18 mm diameter glass coverslips to 50% confluence. […] The treated media was then removed and stored at 4° C. for further analysis. Cells were washed with Cl-free buffer and stained with 20 μM Cell tracker red CMTPX Dye (ThermoFisher Scientific) for 15 mins. Cells were triple washed with Cl-buffer and coverslips were mounted with ProLong® Gold Antifade Mountant with DAPI (ThermoFisher Scientific) without permeabilizing in preparation for confocal microscopy. Samples were imaged using a Nikon A1R+ confocal microscope (1.2 au) with a 20× dry or 60× oil-immersion lens and presented using NIS Elements software (Nikon).

[5] = Preliminary NMR studies of arbutin in acidic conditions; assay type: physicochemical; conditions: low pH, in solution
Text: Arbutin has been described to readily degrade into the split components D-glucose and HQ (and conjugates) in acidic environments, an enteric coated tablet vehicle could potentially be utilised to bypass hydrolysis by stomach acids and improve oral bioavailability.

[6] = In vitro patient-urine based analysis of arbutin and calcium oxalate interactions (birefringence); parameters: species or system human; conditions: 1 mM arbutin, pH7/37° C., 24 hours
Protocol: 50 μl of recurrent calcium oxalate stone forming patient urine and healthy urine samples were combined with 45 μl of 20 mM 4-(2-hydroxyethyl)-1-piperazineethanesulfonic acid (HEPES) buffer (pH 7-8). 5 μl of 20 mM arbutin was added to each solution to form a 1 mM final concentration of the drug. Immediately after addition of the drug, 5 μl of each sample was spotted on a glass slide and birefringence data was imaged on confocal microscope. Each sample was incubated at 37° C. for 24 hours. 5 μl of the sample was identically collected and reimaged. The percent area of birefringence was data analysed as described above. This experiment was repeated in sodium acetate/acetic acid buffer at pH of 4 to observe the efficacy of arbutin in acidic environments. Reduction of percentage stone reduction was analysed using one way ANOVA. Control experiments were conducted using Quick Fix plus synthetic urine from Spectrum labs Cincinnati, Ohio, USA.

[7] = cited from earlier work
HEK293 cells [8] = experiment: Cytotoxicity assay (LDH release) of sodium oxalate and arbutin on human kidney epithelial cells; assay type: cell-based; conditions: arbutin 1 mM final with oxalate, 30 min incubation
Protocol: To assess the cytotoxity of sodium oxalate and arbutin, human embryonic kidney epithelial cells (HEK293; ATCC® CRL-1573™), were cultured in 6-well plate containing 18 mm diameter glass coverslips to 50% confluence. Following aspiration of culture medium, the cells were incubated in a chloride-free solution containing 130 mM Potassium Gluconate, 5 mM Glucose, and 20 mM HEPES (pH 7.4) and 20 μM sodium oxalate for 30 minutes. The treated media was then removed and stored at 4° C. for further analysis. Cells were washed with Cl-free buffer and stained with 20 μM Cell tracker red CMTPX Dye (ThermoFisher Scientific) for 15 mins. Cells were triple washed with Cl-buffer and coverslips were mounted with ProLong® Gold Antifade Mountant with DAPI (ThermoFisher Scientific) without permeabilizing in preparation for confocal microscopy. Samples were imaged using a Nikon A1R+ confocal microscope (1.2 au) with a 20× dry or 60× oil-immersion lens and presented using NIS Elements software (Nikon).
The cytotoxicity of HEK293 cells in sodium oxalate media with or without arbutin was determined by quantifying […] (LDH) content liberated by damaged cells using Cytotoxicity Detection KitPLUS (LDH) (Roche) following the manufacturers instructions. Absorbance readings were taken at 492 nm using BioTek PowerWave HT Microplate Spectrophotometer.

[9] = mouse; cited from earlier work
[10] = in vitro or in vivo studies; cited from earlier work
[11] = tested on: calcium oxalate calculi deposition in fecal excreta of D. melanogaster; experiment: Drug library screening by D. melanogaster fecal excreta birefringence assay; assay type: in vivo, Drosophila melanogaster; conditions: 20 μM candidate compound in fly media with 0.5% (w/v) sodium oxalate; duplicates
Protocol: To quantify calcium oxalate calculi via D. melanogaster excreta birefringence assay, approximately 20 newly eclosed flies were added to each of 15 vials containing either of the lithogenic diets or standard food medium as a control. Stone forming diets were prepared according to the method discussed above. A glass coverslip (18×18 mm) was suspended from the cotton tube plug to allow for the collection of fecal matter. Following a 14-day incubation period, the coverslip was extracted from each tube and each coverslip was directly imaged by confocal microscopy under polarized light. Control experiments performed in a similar fashion with standard food media. The percent area of birefringence for each coverslip was individually analyzed and quantified using NIH ImageJ software (Particle Analysis function). […] The percentage area of birefringence was quantified and compared birefringence data from control experiments with separately prepared 0.5% sodium oxalate media with no addition of candidate compounds. […] After 7 days of incubation and ingestion of drug candidates, viability of flies was quantitated and all coverslips containing fecal excreta were analyzed for birefringence signal (FIG. 2d).

OCC1OC(Oc2ccc(O)cc2)C(O)C(O)C1O [arbutin, hydroquinone β-D-glucopyranoside]
calculi content in MTs ([1]; 32 μM and 512 μM arbutin treatment): decreases in calculi content in MTs | arbutin concentration at which calculi content in fecal excreta significantly decreased ([1]; 0.5% (w/v) sodium oxalate media, 14-day incubation): > 64 µM | IC50 ([1]; Drosophila melanogaster, 336 h, 0.5% (w/v) sodium oxalate media, 14-day incubation, read-out: calculated IC50, calculi content deposited in fecal excreta): 40 µM | calculi deposits in dissected MTs compared to controls ([1]; arbutin at 1 mM in fly media+0.05% sodium oxalate, controls fly media+0.5% oxalate±DMSO): near abrogation of calculi deposits | lowest concentration with anti-lithogenic abilities ([1]; fly media supplemented with sodium oxalate (0.5%)): 64 µM | stone burden via fecal excreta assay in comparison with citrate ([2]; 1 mM final concentration in fly media with patient urine, regardless of pH): significant decrease in stone burden | pH with greater reduction in calculi formation ([2]; 1 mM in fly media with patient urine, various pHs): 7-8 pH | acute and chronic toxicity by oral dosing [3]: low risk of acute and chronic toxicity | cell viability compared to arbutin treatment alone (HEK293 cells [4]; arbutin 1 mM final with oxalate, HEK cells): no impact | effect on oxalate induced loss of cell viability (HEK293 cells [4]; arbutin 1 mM final, HEK cells under 0.1% calcium oxalate conditions): ameliorated this effect | stability in acidic conditions (NMR) [5]: stable | difference in birefringence events in control, healthy urine samples [6]: not significant | birefringence events in nephrolithiasis patient urine samples ([6]; n=3): significant reduction in birefringence events | administered arbutin dose retrieved in the urine as HQ conjugates ([7]; human, 4 hrs following an oral dose): approximately 70% | absorption from the GI tract ([7]; oral): heavily absorbed from the GI tract | LDH activity compared to arbutin treatment alone (HEK293 cells [8]): no impact | acute and chronic toxicity by oral dosing [9]: low risk of acute and chronic toxicity | genotoxic effects [10]: No genotoxic effects | anti-lithogenic activity in library screen (calculi deposition in fecal excreta) [11]: consistently exhibited anti-lithogenic activity
